Experimental data as given in paper PMC3961306, “Comparison of the Cancer Gene Targeting and Biochemical Selectivities of All Targeted Kinase Inhibitors Approved for Clinical Use” (PLoS ONE, 2014).

Tests used:
Assay in all cases: Kinase profiling in a biochemical assay panel (mobility shift assays and ELISA), %-inhibition at 1 μM; selectivity entropy
[1] = target: T1, panel of more than 300 wild-type and mutant kinases (313 kinase panel) (Homo sapiens, UniProt O00141); details: kinase SGK; 1 μM
T1 sequence (O00141 1-431): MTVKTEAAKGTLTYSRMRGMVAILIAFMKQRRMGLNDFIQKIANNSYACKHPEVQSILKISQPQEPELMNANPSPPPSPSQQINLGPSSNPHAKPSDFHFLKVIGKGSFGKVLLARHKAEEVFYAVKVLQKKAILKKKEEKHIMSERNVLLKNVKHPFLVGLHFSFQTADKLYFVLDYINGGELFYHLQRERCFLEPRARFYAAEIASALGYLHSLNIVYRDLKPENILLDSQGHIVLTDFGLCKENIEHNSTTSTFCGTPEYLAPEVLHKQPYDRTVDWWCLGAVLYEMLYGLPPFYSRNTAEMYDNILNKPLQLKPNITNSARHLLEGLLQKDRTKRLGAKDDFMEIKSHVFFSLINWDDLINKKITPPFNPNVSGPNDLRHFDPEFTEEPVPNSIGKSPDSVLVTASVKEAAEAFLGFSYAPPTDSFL

[2] = target: panel of more than 300 wild-type and mutant kinases (313 kinase panel) (Homo sapiens, UniProt P07949, S891A); details: kinase RET(S891A); 1 μM
[3] = target: panel of more than 300 wild-type and mutant kinases (313 kinase panel) (Homo sapiens, UniProt P16591); details: kinase FER; compound at 1 μM
[4] = target: T2, panel of more than 300 wild-type and mutant kinases (313 kinase panel) (Homo sapiens, UniProt Q12851); details: kinase MAP4K2; compound at 1 μM
T2 sequence (Q12851 1-820): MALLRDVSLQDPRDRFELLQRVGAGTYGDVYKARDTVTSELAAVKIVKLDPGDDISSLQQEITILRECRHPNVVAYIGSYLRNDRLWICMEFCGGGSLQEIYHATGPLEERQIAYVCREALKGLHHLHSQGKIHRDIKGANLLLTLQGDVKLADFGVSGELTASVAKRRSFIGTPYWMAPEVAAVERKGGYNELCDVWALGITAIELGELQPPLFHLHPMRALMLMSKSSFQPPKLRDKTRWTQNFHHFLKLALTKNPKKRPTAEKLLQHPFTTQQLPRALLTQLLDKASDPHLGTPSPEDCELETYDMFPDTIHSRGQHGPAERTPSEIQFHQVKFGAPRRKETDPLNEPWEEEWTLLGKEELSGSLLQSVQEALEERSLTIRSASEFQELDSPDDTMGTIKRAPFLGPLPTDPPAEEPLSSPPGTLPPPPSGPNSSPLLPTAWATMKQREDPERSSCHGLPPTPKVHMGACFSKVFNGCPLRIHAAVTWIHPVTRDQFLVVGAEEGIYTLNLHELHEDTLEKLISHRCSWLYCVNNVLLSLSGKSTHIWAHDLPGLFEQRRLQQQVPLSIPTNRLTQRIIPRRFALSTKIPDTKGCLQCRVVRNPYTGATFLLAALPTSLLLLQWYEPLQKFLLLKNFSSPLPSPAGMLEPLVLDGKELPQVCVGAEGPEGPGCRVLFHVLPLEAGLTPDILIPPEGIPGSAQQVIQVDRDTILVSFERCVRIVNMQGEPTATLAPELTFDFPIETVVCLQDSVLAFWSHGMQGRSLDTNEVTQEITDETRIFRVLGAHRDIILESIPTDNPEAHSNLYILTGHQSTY

[5] = target: T3, panel of more than 300 wild-type and mutant kinases (313 kinase panel) (Homo sapiens, UniProt Q15831)
T3 sequence (Q15831 1-433): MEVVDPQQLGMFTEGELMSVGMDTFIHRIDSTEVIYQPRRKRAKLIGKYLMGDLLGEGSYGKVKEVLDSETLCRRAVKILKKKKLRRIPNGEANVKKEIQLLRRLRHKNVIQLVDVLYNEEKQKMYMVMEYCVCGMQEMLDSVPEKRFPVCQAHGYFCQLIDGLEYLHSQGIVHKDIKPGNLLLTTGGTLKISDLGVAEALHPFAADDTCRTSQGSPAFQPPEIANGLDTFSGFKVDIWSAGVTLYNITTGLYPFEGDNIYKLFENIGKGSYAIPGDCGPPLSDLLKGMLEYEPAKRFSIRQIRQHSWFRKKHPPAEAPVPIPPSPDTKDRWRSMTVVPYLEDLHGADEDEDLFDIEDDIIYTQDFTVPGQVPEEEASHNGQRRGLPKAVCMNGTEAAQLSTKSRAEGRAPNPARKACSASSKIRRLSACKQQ

[6] = target: T4, panel of more than 300 wild-type and mutant kinases (313 kinase panel) (Homo sapiens, UniProt Q96KB5); details: kinase PBK; 1 μM
T4 sequence (Q96KB5 1-322): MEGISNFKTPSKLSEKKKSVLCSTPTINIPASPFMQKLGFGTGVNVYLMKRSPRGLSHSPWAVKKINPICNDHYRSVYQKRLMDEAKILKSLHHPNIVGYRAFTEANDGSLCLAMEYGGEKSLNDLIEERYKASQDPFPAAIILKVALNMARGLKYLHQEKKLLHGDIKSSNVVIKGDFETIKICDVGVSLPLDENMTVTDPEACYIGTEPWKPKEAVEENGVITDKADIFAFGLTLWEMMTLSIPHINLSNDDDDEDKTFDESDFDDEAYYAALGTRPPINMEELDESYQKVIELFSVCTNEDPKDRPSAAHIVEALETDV

[7] = target: panel of more than 300 wild-type and mutant kinases (313 kinase panel) (Homo sapiens, UniProt O75676)
[8] = target: panel of more than 300 wild-type and mutant kinases (313 kinase panel) (Homo sapiens, UniProt P04629); details: kinase TRKA; 1 μM
[9] = target: panel of more than 300 wild-type and mutant kinases (313 kinase panel) (Homo sapiens, UniProt Q9Y6M4); details: kinase CK1γ3; 1 μM compound
Chain of panel of more than 300 wild-type and mutant kinases (313 kinase panel) (Homo sapiens, UniProt Q9Y6M4) (Q9Y6M4 whole entry, change not shown): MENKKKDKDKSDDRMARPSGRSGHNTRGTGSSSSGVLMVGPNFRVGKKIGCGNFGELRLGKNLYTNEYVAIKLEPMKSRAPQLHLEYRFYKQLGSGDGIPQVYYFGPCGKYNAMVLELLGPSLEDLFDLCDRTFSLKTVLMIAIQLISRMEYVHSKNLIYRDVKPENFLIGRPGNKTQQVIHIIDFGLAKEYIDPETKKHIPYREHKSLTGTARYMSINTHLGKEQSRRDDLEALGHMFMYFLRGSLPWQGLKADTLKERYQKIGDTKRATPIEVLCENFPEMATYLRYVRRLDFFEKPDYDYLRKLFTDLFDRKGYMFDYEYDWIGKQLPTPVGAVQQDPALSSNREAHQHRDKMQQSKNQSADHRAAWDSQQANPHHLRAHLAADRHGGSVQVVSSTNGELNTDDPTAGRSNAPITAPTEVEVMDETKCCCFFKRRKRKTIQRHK

Chain of panel of more than 300 wild-type and mutant kinases (313 kinase panel) (Homo sapiens, UniProt P07949, S891A) (P07949 29-1114 S891A): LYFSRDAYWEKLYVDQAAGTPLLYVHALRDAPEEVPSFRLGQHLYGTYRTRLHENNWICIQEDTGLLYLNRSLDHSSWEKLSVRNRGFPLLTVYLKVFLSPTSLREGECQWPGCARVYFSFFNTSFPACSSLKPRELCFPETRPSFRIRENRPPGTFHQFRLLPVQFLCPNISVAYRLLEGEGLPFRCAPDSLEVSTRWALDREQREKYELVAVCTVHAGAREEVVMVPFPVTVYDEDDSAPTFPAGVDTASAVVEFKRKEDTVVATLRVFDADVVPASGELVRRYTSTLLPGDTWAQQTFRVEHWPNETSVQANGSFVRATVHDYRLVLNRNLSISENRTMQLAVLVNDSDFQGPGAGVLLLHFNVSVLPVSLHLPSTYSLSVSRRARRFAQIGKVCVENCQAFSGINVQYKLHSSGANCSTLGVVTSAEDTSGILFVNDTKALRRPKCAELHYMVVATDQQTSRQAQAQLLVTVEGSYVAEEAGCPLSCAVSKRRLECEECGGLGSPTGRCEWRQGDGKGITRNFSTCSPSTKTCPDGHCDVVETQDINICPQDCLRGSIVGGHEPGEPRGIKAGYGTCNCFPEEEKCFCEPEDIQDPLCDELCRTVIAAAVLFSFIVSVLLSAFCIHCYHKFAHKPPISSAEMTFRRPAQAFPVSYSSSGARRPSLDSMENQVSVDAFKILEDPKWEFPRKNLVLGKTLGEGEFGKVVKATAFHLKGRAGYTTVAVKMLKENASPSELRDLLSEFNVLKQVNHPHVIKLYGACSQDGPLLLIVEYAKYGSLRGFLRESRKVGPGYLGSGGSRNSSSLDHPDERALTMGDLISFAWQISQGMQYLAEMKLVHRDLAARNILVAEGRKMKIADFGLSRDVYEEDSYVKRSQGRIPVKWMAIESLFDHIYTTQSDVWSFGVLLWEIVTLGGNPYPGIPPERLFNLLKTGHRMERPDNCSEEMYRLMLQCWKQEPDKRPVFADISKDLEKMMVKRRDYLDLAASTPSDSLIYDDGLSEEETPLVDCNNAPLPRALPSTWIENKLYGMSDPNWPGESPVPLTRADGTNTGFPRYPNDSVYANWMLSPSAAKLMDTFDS
Chain of panel of more than 300 wild-type and mutant kinases (313 kinase panel) (Homo sapiens, UniProt P16591) (P16591 whole entry, change not shown): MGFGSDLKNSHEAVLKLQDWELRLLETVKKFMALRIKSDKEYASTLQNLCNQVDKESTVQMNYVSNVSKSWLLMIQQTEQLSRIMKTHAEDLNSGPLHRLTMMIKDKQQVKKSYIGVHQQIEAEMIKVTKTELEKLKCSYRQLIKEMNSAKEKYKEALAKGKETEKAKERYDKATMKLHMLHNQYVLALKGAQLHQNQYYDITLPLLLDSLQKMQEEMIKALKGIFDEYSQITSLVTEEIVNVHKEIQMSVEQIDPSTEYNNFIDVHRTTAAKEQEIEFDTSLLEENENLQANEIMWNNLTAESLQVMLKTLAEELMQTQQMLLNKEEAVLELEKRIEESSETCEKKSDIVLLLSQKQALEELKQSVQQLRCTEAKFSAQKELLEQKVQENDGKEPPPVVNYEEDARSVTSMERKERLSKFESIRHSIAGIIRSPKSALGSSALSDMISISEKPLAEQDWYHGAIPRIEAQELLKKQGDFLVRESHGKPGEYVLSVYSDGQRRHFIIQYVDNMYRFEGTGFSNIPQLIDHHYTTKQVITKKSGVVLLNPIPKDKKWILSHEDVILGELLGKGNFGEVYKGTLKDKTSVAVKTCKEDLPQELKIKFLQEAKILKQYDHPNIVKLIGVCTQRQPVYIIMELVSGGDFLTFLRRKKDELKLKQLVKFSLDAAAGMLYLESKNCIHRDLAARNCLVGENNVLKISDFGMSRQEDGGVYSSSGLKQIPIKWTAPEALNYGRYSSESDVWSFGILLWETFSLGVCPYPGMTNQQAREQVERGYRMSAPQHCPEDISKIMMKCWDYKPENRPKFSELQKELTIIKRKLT

Structure (SMILES) | %-inhibition of SGK [1] | %-inhibition of RET(S891A) [2] | %-inhibition of FER [3] | %-inhibition of MAP4K2 [4] | %-inhibition of LKB1 ([5]; kinase LKB1, compound at 1 μM) | %-inhibition of PBK [6] | %-inhibition of MSK2 ([7]; kinase MSK2, 1 μM) | %-inhibition of TRKA [8] | %-inhibition, CK1γ3 [9] | %-inhibition of MSK2 ([7]; 1 µM) | %-inhibition of LKB1 ([5]; 1 µM)
CC(C)(C)c1nc(-c2cccc(NS(=O)(=O)c3c(F)cccc3F)c2F)c(-c2ccnc(N)n2)s1 [dabrafenib] | 4% | 53% | 22% | 8% | 4.34% | 12% |  |  |  |  | 
CCCS(=O)(=O)Nc1ccc(F)c(C(=O)c2c[nH]c3ncc(-c4ccc(Cl)cc4)cc23)c1F [vemurafenib] | -0.122% | 60% | 11% | 43% | 1.13% | -12% | -1% | 16% | 2.14% |  | 
CN(C)C/C=C/C(=O)Nc1cc2c(Nc3ccc(F)c(Cl)c3)ncnc2cc1O[C@H]1CCOC1 [afatinib] |  |  |  |  |  | -3% |  |  |  |  | 
Cc1nc(Nc2ncc(C(=O)Nc3c(C)cccc3Cl)s2)cc(N2CCN(CCO)CC2)n1 [dasatinib] | 6% |  |  |  | 0.734% |  |  |  |  |  | 
C[C@@H](Oc1cc(-c2cnn(C3CCNCC3)c2)cnc1N)c1c(Cl)ccc(F)c1Cl [crizotinib] | 1.46% |  |  |  | -1.39% | -14% | -1.8% | 103% | 4% |  | 
Cc1ccc(C(=O)Nc2ccc(CN3CCN(C)CC3)c(C(F)(F)F)c2)cc1C#Cc1cnc2cccnn12 [ponatinib] | 7.57% | 102% | 89% | 99% | -12% | -14% | 27% | 101% | 4.6% |  | 
O=S(=O)(c1cccc2cnccc12)N1CCCNCC1 [fasudil] | 2.82% | -1.38% | -3% | 4% | 6% | -2.33% | 15% | -2.44% | -4% |  | 
COc1cc(Nc2c(C#N)cnc3cc(OCCCN4CCN(C)CC4)c(OC)cc23)c(Cl)cc1Cl [bosutinib] | -5% | 90% | 89% | 98% | -5.27% | -24% | -2.27% | 88% | 3.3% |  | 
CO[C@H]1C[C@@H]2CC[C@@H](C)[C@@](O)(O2)C(=O)C(=O)N2CCCC[C@H]2C(=O)O[C@H]([C@H](C)C[C@@H]2CC[C@@H](OCCO)[C@H](OC)C2)CC(=O)[C@H](C)/C=C(\C)[C@@H](O)[C@@H](OC)C(=O)[C@H](C)C[C@H](C)/C=C/C=C/C=C/1C [everolimus] | -6.59% | -3% | -0.138% | -7% | -9% | -10% | -7% | -3.53% | -13% |  | 
Cc1ccc(Nc2nccc(N(C)c3ccc4c(C)n(C)nc4c3)n2)cc1S(N)(=O)=O [pazopanib] | -1.12% | 100% | 81% | 71% | 28% | -5% | 1.45% |  | -2% |  | 
CC(=O)Nc1cccc(-n2c(=O)n(C3CC3)c(=O)c3c(Nc4ccc(I)cc4F)n(C)c(=O)c(C)c32)c1 [trametinib] | 0.217% | -1.24% | 4.28% | 4% | 2.38% | -3.79% | -4.75% | -1.17% |  |  | 
CCN(CC)CCNC(=O)c1c(C)[nH]c(/C=C2\C(=O)Nc3ccc(F)cc32)c1C [sunitinib] | 60% |  |  | 85% | 11% |  |  | 98% |  |  | 
COc1cc2c(Nc3ccc(Br)cc3F)ncnc2cc1OCC1CCN(C)CC1 [vandetanib] | -4.51% |  | 2.48% |  | -4.54% | -21% | -3.21% | 46% | 2.66% |  | 
COc1cc2nccc(Oc3ccc(NC(=O)C4(C(=O)Nc5ccc(F)cc5)CC4)cc3)c2cc1OC [cabozantinib] | -2% |  |  | 35% | -3.17% | -4.29% | -3.52% | 100% | 5% |  | 
N#CC[C@H](C1CCCC1)n1cc(-c2ncnc3[nH]ccc23)cn1 [ruxolitinib] | -2.44% |  | 33% | 7% |  | -19% |  | 92% | 4.6% | 4.62% | 0.546%
